Assay results published in US7090996B2, “Process for examining membrane enclosed biocompartments” (Micronas GmbH, priority 2000, dated 2006).

Tested on: biocompartments 1 (biological cells)
Test: Micro-flow chamber ISFET measurement of acidification and respiratory activity of biocompartments
Format: cell-based
Conditions: for acidification ΔpH−31 activated by the biocompartments / respiratory activity of the biocompartments: agent in culture medium, stand-still phase of pump, compared with agent-free medium (FIG. 5)
From the text: In a process for the examining of membrane enclosed biocompartments, biocompartments 1 were designed as biological cells placed in a micro-flow chamber 2. […] The space 3 is provided with an inlet opening 4 and an exit opening 5 for nutrient or culture medium. The chamber housing has a chamber base part 6 and a top part 7 which fits said base part 6 and the two parts are sealed liquid tight to one another by an interposed sealing ring 8.
The inlet opening 4 of the measurement space is connected to the measuring space 3 by a feed conduit 9, which in turn is connected to a culture medium supply 10. A pump 11 is placed in the feed canal 9 for the transport of the culture medium. The pump 11 can be turned on and off by means of a control apparatus (not shown). The exit opening 5 of the micro-flow chamber 2 is joined by means of a connecting line 12, to an exhaust opening 13 for release of the culture medium. In the measuring space 3, the biocompartments 1 stand in contact with the culture medium.
In the base of the measuring space 3, are placed a plurality of ISFET's 14. […] Between drain 16 and source 17, is a gate 18. Gate 18, drain 16 and source 17 are electrically insulated from the measurement space 3 by means of a silicon nitride layer (not shown). The silicon nitride layer forms on its side remote from the gate 18, an active sensor layer. By means of which layer, the ISFET 14 is controllable through the hydrogen ions present in the culture medium. Gate 18, drain 16 and source 17 of the ISFET are connected with a known evaluation apparatus for the determination of the pH value of the culture medium which is somewhat proportional to measurement signal of the respective ISFET 14.
As is particularly well presented in FIG. 2, an electrode 19 is placed in close proximity to the gates 18. This electrode 19 is constructed of a noble metal, such as palladium and is in direct contact with the culture medium.
A reference electrode 20 is paired with the operational electrode 19, which contacts the culture medium at a spatial distance from the ISFET 14. […] The reference electrode 20 and the operational electrodes 19 can be connected to an electrical source of potential for the application of an electric potential on the culture medium.
By means of the above described measurement arrangement, the respiratory activities of the biocompartments 1 can be indirectly measured. To carry out this purpose, the pump 11, which acts to transport the through-put of the culture medium through the measurement space 3, is temporarily stopped. In FIG. 4, the period of time during which the through-put in the measurement space 3 is stopped, is designated as the time T1 (stopping the pump 11) and T2 (starting the pump 11). This time interval can run, for instance, some 8 minutes.
Subsequently, by means of the ISFET 14, a first pH−1 is measured for the pH value of the culture medium, preparatory to a first pH measurement pair. […] When this occurs, this potential preferably is set at some −700 to −800 millivolts. In the embodiment of FIG. 3, this potential is applied to the electrodes 19, 20. The surface of the operational electrode 19 exposed to contact with the culture medium is chosen to be as small as possible with potential measuring preferably less than 1000 μm^2, so that, during the application of electrical voltage, the consumption of oxygen at the operational electrode 19 will be held at the lowest possible level. […]

Compound	viability of the biocompartments (agent in culture medium (FIG. 7))	acidification ΔpH−31 activated by the biocompartments	respiratory activity of the biocompartments
Triton®	dying out	no longer influence the culture medium	no further sign of respiratory activity
O=C(O)CI [iodine acetate]	–	recedes	increase
